Experiment: Anticancer human tumor 997537-175-T-J1-PDC patient-derived colon adenocarcinoma cell line growth inhibition [POLQ]
Conditions: 997537-175-T-J1-PDC complex spheroid viability, combination with POLQ inhibitors; for IC50: curve of first compound; for viability, T/C: stronger effect = lower value
Procedure, shortened: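 Growth inhibition in 3D: complex spheroids (tumor PDC, HUVEC, MSC) treated with POLQ inhibitor combinations; where Cmax unknown, highest tested concentration 10 microM, except SN-38 at 1 microM.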
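Note: luminescence signal used as a surrogate for viable cells; spheroids exposed to drugs for seven days before readout.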

Nc1ccn(C2OC(CO)C(O)C2(F)F)c(=O)n1 (configuration not stated) + Cc1cccc(N(C)C(=O)C2C(O)CCN2c2nc(C)cc(C(F)(F)F)c2C#N)c1
IC50 (second compound 0.0316 µM): > 10 µM | IC50 (second compound 0.1 µM): > 10 µM | IC50 (second compound 0.316 µM): > 10 µM | IC50 (second compound 1 µM): > 10 µM | IC50 (second compound 3.16 µM): > 10 µM | IC50 (second compound 10 µM): > 10 µM | viability, T/C (second compound 0.0316 µM, first compound 0.0316 µM): 96.2% | viability, T/C (second compound 0.0316 µM, first compound 0.1 µM): 99.7% | viability, T/C (second compound 0.0316 µM, first compound 0.316 µM): 91.8% | viability, T/C (second compound 0.0316 µM, first compound 1 µM): 89.8% | viability, T/C (second compound 0.0316 µM, first compound 3.16 µM): 57.8% | viability, T/C (second compound 0.0316 µM, first compound 10 µM): 77% | viability, T/C (second compound 0.1 µM, first compound 0.0316 µM): 106% | viability, T/C (second compound 0.1 µM, first compound 0.1 µM): 91.5% | viability, T/C (second compound 0.1 µM, first compound 0.316 µM): 85.1% | viability, T/C (second compound 0.1 µM, first compound 1 µM): 67.1% | viability, T/C (second compound 0.1 µM, first compound 3.16 µM): 90.5% | viability, T/C (second compound 0.1 µM, first compound 10 µM): 52.8% | viability, T/C (second compound 0.316 µM, first compound 0.0316 µM): 91.4% | viability, T/C (second compound 0.316 µM, first compound 0.1 µM): 102% | viability, T/C (second compound 0.316 µM, first compound 0.316 µM): 79.3% | viability, T/C (second compound 0.316 µM, first compound 1 µM): 76.7% | viability, T/C (second compound 0.316 µM, first compound 3.16 µM): 80.4% | viability, T/C (second compound 0.316 µM, first compound 10 µM): 63.5% | viability, T/C (second compound 1 µM, first compound 0.0316 µM): 91.8% | viability, T/C (second compound 1 µM, first compound 0.1 µM): 102% | viability, T/C (second compound 1 µM, first compound 0.316 µM): 73.7% | viability, T/C (second compound 1 µM, first compound 1 µM): 68.4% | viability, T/C (second compound 1 µM, first compound 3.16 µM): 66% | viability, T/C (second compound 1 µM, first compound 10 µM): 66.7% | viability, T/C (second compound 3.16 µM, first compound 0.0316 µM): 95.3% | viability, T/C (second compound 3.16 µM, first compound 0.1 µM): 103% | viability, T/C (second compound 3.16 µM, first compound 0.316 µM): 90.4% | viability, T/C (second compound 3.16 µM, first compound 1 µM): 92.5% | viability, T/C (second compound 3.16 µM, first compound 3.16 µM): 86.1% | viability, T/C (second compound 3.16 µM, first compound 10 µM): 70.7% | viability, T/C (second compound 10 µM, first compound 0.0316 µM): 94.8% | viability, T/C (second compound 10 µM, first compound 0.1 µM): 97.2% | viability, T/C (second compound 10 µM, first compound 0.316 µM): 96.6% | viability, T/C (second compound 10 µM, first compound 1 µM): 86.9% | viability, T/C (second compound 10 µM, first compound 3.16 µM): 47.2% | viability, T/C (second compound 10 µM, first compound 10 µM): 82%
